{"source": "patent US12479858B2", "about": "“Macrocyclic compounds as sting agonists and methods and uses thereof” (Lupin Limited, priority 2019, dated 2025)", "key": {"[1]": {"system": "Interferon beta (IFNβ), interleukin-6 (IL-6) and tumor necrosis factor alpha (TNFα)", "experiment": "Serum and tumor cytokine levels in CT26 tumor-bearing mice (ELISA)", "assay_type": "in vivo, BALB/c mice", "conditions": "0.375 mg/kg single i.v.", "description": "Pharmacokinetic and Pharmacodynamic Profiling and Estimation of Immune Cell Infiltration in Tumors Following Treatment with Compounds 2, 6, 8, 12 and 14\nSerum and tumor cytokine levels and corresponding compound concentrations in mouse plasma were determined following single-dose intravenous administration in CT26 (murine colorectal carcinoma) tumor-bearing mice. Briefly, naïve BALB/c mice in the age group of 6-8 weeks were inoculated with 0.1 million CT-26 cells/animal in phosphate buffered saline (PBS), subcutaneously. […] Blood and tumor samples were harvested at various time points up to 24 h post-dose. Tumor samples were homogenized and prepared for cytokine estimation (ELISA) and compound concentration were determined by LC-MS/MS. Serum aliquots and tumor samples were snap-frozen and stored at −80° C. till further analysis. Serum and tumor samples were evaluated for Interferon beta (IFNβ), interleukin-6 (IL-6) and tumor necrosis factor alpha (TNFα) by enzyme linked immunosorbent assay (ELISA) using kits from R & D systems (Quantikine mouse IL-6 and TNFα kits) and PBL biosciences (Verikine mouse IFNβ kit).\nCytokine analysis from mouse serum samples: For IL-6 and TNFα estimation, 50 μL of test samples or internal standard or control were applied to wells in duplicates and incubated for 2 h at room temperature, followed by aspiration and washing four times with 400 μL of wash buffer. 100 μL of mouse IL-6 or TNFα conjugate solution was added and incubated further for 2 h at room temperature and followed later by 4 wash cycles. 100 μL of substrate solution was added to each well with addition of stop solution after 30 min. Optical density was measured at 450 nm averaged and was used for further calculations following subtraction of respective blank controls. Cytokine concentrations were determined by interpolating the optical density of samples into the reference standard curve utilizing four parameter logistic (4-PL) curve-fit. Cytokine concentrations were normalized with their respective dilution factors and represented in pg/mL. For IFNβ estimation, 100 μL test sample or internal standard or controls were applied to the wells in duplicates and incubated for 1 h at room temperature followed by three washes and addition of the anti-mouse IFNβ antibody solution with further 1 h incubation. This was followed by addition of horseradish peroxidase (HRP) solution and three washes, later addition of TMB substrate and reading the optical density at 450 nm. Optical densities were blank-subtracted and interpolated to the reference standard utilizing the four parameter logistic (4-PL) curve-fit. Cytokine concentrations were normalized with their respective dilution factors and represented in pg/mL. Tables 4 and 5 indicate cytokine levels for compounds 2, 6, 8, 12, and 14 in serum and tumor at different administered doses.\nCytokine analysis from tumor samples: Tumor samples were homogenized in a bead-based homogenizer and lysates were prepared with buffer supplemented with 1% Triton X-100 and protease inhibitors. Cytokine levels were estimated by ELISA and expressed as pg/g tumor."}, "[2]": {"system": "CD3^+CD8^+ T cells", "experiment": "Estimation of immune cell infiltration in tumors (flow cytometry)", "assay_type": "in vivo, Balb/c mice", "description": "Estimation of immune cell infiltration in tumors: CT-26 tumor-bearing Balb/c mice were treated intravenously with 0.375 mg/kg of test compounds and blood and tumors were processed for analysis of CD8^+, CD3^+ and CD45^+ T cells at 24 h and 96 h after start of treatment. Blood samples were subjected to RBC lysis and the cells were recovered by centrifugation. Following wash with PBS, the cells were blocked using TruStain FcX™ blocking antibody and stained with fluorophore-tagged anti-CD45, anti-CD3 and anti-CD8 antibodies. Tumor samples were minced and subjected to tissue digestion using freshly prepared collagenase-IV solution (1 mg/ml) containing DNase (0.05 mg/ml) for 1-1.5 h at 37° C. and 150-200 rpm. Single cell suspension was prepared by filtering it through a 100 μm mesh and checked for cell viability. Cells were stained with various antibodies as mentioned above. The distinct T cell subsets were analysed on FACS Canto II (BD) and percentage of each population was calculated after initial gating of CD45^+ lymphocyte population."}, "[3]": {"target": "T1, Human STING (Homo sapiens, UniProt Q86WV6, G230A/H232R/R293Q/R71H)", "T1 construct": "using human THP1-Blue™ ISG SEAP based reporter cell line (Invivogen); host or cells: THP1-Blue ISG cells (human monocytic THP-1 derived SEAP reporter line)", "T1 sequence (Q86WV6 whole entry R71H/G230A/H232R/R293Q)": "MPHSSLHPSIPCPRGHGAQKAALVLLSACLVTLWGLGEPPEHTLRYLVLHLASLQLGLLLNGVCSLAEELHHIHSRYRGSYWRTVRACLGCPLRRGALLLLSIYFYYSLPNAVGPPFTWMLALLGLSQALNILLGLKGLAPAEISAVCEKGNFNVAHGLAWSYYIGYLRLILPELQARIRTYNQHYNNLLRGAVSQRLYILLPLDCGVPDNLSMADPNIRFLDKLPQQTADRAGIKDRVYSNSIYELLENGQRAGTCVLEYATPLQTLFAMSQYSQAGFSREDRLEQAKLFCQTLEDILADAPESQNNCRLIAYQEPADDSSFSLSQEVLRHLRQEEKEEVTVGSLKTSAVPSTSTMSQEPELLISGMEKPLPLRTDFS", "experiment": "Stimulation of human STING signaling in THP1 cell line (THP1-Blue ISG SEAP reporter)", "assay_type": "cell-based", "conditions": "THP1-Blue ISG cells, SEAP activity, 18-20 hours", "how_it_was_run": "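THP1-Blue ISG reporter cells dosed with compound over a concentration range for 18-20 h at 37 °C, 5% CO2. SEAP in supernatant read by QuantiBlue absorbance at 620 nm. EC50 fitted from duplicate points; fold induction taken relative to unstimulated cells.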"}}, "note": "pEC50: −log10 of the molar value. Where a name gives a salt, the structure may show the parent alone.", "data": [{"smiles": "CCn1nc(C)cc1C(=O)Nc1nc2cc(C(N)=O)cc3c2n1C/C=C/Cn1c(NC(=O)c2cc(C)nn2CC)nc2cc(C(=O)N[C@H]4CC[C@H](c5nnn[nH]5)CC4)cc(c21)OC[C@@H](N1C2CCC1COC2)CO3", "note": "[Compound 12, (8S,E)-N4-((1R,4S)-4-(1H-tetrazol-5-yl)cyclohexyl)-8-(3-oxa-8-azabicyclo[3.2.1]octan-8-yl)-1,15-bis(1-ethyl-3-methyl-1H-pyrazole-5-carboxamido)-8,9,16,19-tetrahydro-7H-6,10-dioxa-2,14,15a,19a-tetraazacyclopentadeca[3,2,1-cd:8,9,10-c′d′]diindene-4,12-dicarboxamide sodium salt]", "values": [{"measurement": "Serum IFNβ", "setting": "[1]; 3.5 h (Table 6)", "result": "4248 ± 706", "unit": "pg/mL"}, {"measurement": "Tumor IFNβ", "setting": "[1]; 3.5 h (Table 6)", "result": "6190 ± 687.0", "unit": "pg/g tumor"}, {"measurement": "Serum IFNβ", "setting": "[1]; 8 h (Table 6)", "result": "568 ± 48.6", "unit": "pg/mL"}, {"measurement": "Tumor IFNβ", "setting": "[1]; 8 h (Table 6)", "result": "1144 ± 128.9", "unit": "pg/g tumor"}, {"measurement": "Serum IFNβ", "setting": "[1]; 12 h (Table 6)", "result": "16 ± 15.7", "unit": "pg/mL"}, {"measurement": "Tumor IFNβ", "setting": "[1]; 12 h (Table 6)", "result": "789 ± 378.2", "unit": "pg/g tumor"}, {"measurement": "Serum IFNβ", "setting": "[1]; 24 h (Table 6)", "result": "BLQ"}, {"measurement": "Tumor IFNβ", "setting": "[1]; 24 h (Table 6)", "result": "94 ± 48.3", "unit": "pg/g tumor"}, {"measurement": "% CD3^+CD8^+ T cells", "setting": "[2]; infiltration in tumor, 96 h post treatment, 0.375 mg/kg single i.v.", "result": "12.2 ± 0.5", "unit": "%"}, {"measurement": "% CD3^+CD8^+ T cells infiltrating the tumor as compared to the vehicle-treated group", "setting": "[2]; single i.v. dose of 0.375 mg/kg, 96 h post treatment initiation", "result": "increase"}, {"measurement": "pEC50", "setting": "[3]", "result": "8.00 to 9.00"}]}]}
